Where only a bound is given, the exact number is not on record here.

Data set [1] in a line: Tolerability of oral treatment in dogs. It is filed as in vivo, dog. As to the method: (§1) The therapeutic (knockdown) and residual efficacy of 5, administered orally at a point dose of 25 mg/kg bodyweight, was evaluated against adult American dog tick (D. variabilis) infestations on dogs. Six beagle dogs were allocated to one of two treatment groups, an untreated control group (n=4 dogs) or 5 group (n=2 dogs). On Day 0, two dogs were treated with 5 via oral gavage (25 mg/ml 5, dissolved in a solution of 55% polyethylene glycol-300, 35% propylene glycol and 10% water) at a point dose of approximately 25 mg/kg. Twenty-four (24) hours before treatment (Day −1), all dogs were infested with approximately 50 unfed, adult-stage American dog ticks (D. variabilis; approximately 50% male and 50% female). On Day 1, approximately 24 hours after treatment, thumb counts were conducted to determine the number and life-status classification of ticks present on all dogs (normal, moribund or dead; attached or detached). Ticks were not removed during thumb counts. On Day 2, approximately 48 hours after treatment, all ticks were classified and removed from dogs. Dogs were re-infested with approximately 50 unfed, adult D. variabilis ticks on Days 5 and 12, with tick classification, counts and removal on Days 7 and 14 (approximately 48 hours after each infestation).
(§2) The therapeutic (knockdown) and residual efficacy of 7 and 8, each administered orally at a point dose of 25 mg/kg bodyweight, was evaluated against adult tick (Dermacentor variabilis and Rhipicephalus sanguineus) and adult cat flea (Ctenocephalides felis) infestations on dogs. Twelve (12) male and female beagle dogs were randomly allocated to one of three treatment groups, four (4) dogs per group: Untreated control; 7, 25 mg/kg; and 8, 25 mg/kg. On Day −1, all dogs were infested with approximately 50 unfed, adult D. variabilis ticks. On Day 0, dogs were orally administered gelatin capsules containing either 7 or 8 (50% technical active, 47% microcrystalline cellulose and 3% croscarmellose sodium, w/w). Ticks were counted and classified, but not removed, on all dogs on Day 1, approximately 24 hours after treatment. On Day 2, approximately 48 hours after treatment, ticks were counted, classified and removed. Dogs were re-infested with the same number of D. variabilis ticks on Days 5, 12, 19 and 28 and tick counts were conducted on Days 7, 14, 21 and 30.
The therapeutic (knockdown) and residual efficacy of 7, administered orally at a point dose of 35 mg/kg bodyweight, was evaluated against adult tick (Dermacentor variabilis and Rhipicephalus sanguineus) and adult cat flea (Ctenocephalides felis) infestations on dogs. Twelve (12) male and female beagle dogs were allocated to either an untreated, negative control group or 7 group (n=6 dogs per group). Dogs were infested with approximately 50 unfed, adult D. variabilis ticks on Days −1, 5, 12, 19, 28, 35 and 42. On Day 0, dogs were orally administered gelatin capsules containing Compound 8194 (50% technical active, 47% microcrystalline cellulose and 3% croscarmellose sodium, w/w) at a point dose of 35 mg/kg. […] GM percent efficacy of treatments against both tick species and fleas was calculated using the following formula: […]
The therapeutic efficacy and speed of kill of 7, administered orally at a point dose of 20 mg/kg bodyweight, was evaluated against adult cat flea (Ctenocephalides felis) infestations on dogs. […]

In data set [2] the test system is cat flea (Ctenocephalides felis). In words: Residual efficacy against adult cat flea infestations on dogs, oral. The data set is classed as in vivo. The conditions noted are these: Day 32. As to the method:
(§3) Immediately following removal of D. variabilis ticks on Day 30, dogs were co-infested with approximately 50 adult, unfed brown dog ticks (R. sanguineus, approximately 50% male and 50% female) and approximately 100 adult, unfed cat fleas (C. felis, approximately 50% male and 50% female). Ticks and fleas were counted and removed on Day 32 (approximately 48 hours after infestation). GM percent efficacy of treatments against both tick species and fleas was calculated using the following formula: […]
(§4) The therapeutic (knockdown) and residual efficacy of 7, administered orally at a point dose of 35 mg/kg bodyweight, was evaluated against adult tick (Dermacentor variabilis and Rhipicephalus sanguineus) and adult cat flea (Ctenocephalides felis) infestations on dogs. Twelve (12) male and female beagle dogs were allocated to either an untreated, negative control group or 7 group (n=6 dogs per group). Dogs were infested with approximately 50 unfed, adult D. variabilis ticks on Days −1, 5, 12, 19, 28, 35 and 42. On Day 0, dogs were orally administered gelatin capsules containing Compound 8194 (50% technical active, 47% microcrystalline cellulose and 3% croscarmellose sodium, w/w) at a point dose of 35 mg/kg. D. variabilis tick counts and classification were conducted on Day 1 (thumb count, approximately 24 hours after treatment) and Days 2, 7, 14, 21, 30, 37 and 44 (approximately 48 hours after treatment). Following removal of D. variabilis ticks on Day 30, all dogs were co-infested with approximately 50 unfed, adult brown dog ticks (R. sanguineus) and approximately 100 unfed, adult cat fleas (C. felis). Brown dog tick and cat flea counts were conducted on Day 32 (approximately 48 hours after infestation). GM percent efficacy of treatments against both tick species and fleas was calculated using the following formula: […]
(§5) The therapeutic (knockdown) and residual efficacy of S-enantiomer, 9, administered orally at a point dose of 25 mg/kg bodyweight, was evaluated against adult tick (Dermacentor variabilis and Rhipicephalus sanguineus) and adult cat flea (Ctenocephalides felis) infestations on dogs. Twelve (12) male and female beagle dogs were allocated to either an untreated, negative control group or 9 group (n=6 dogs per group). Dogs were infested with approximately 50 unfed, adult D. variabilis ticks on Days −1, 5, 12, 19, and 28. On Day 0, dogs were orally administered gelatin capsules containing 9 (50% technical active, 47% microcrystalline cellulose and 3% croscarmellose sodium, w/w) at a point dose of 25 mg/kg. D. variabilis tick counts and classification were conducted on Day 1 (thumb count, approximately 24 hours after treatment) and Days 2, 7, 14, 21 and 30 (approximately 48 hours after treatment). Following removal of D. variabilis ticks on Day 30, all dogs were co-infested with approximately 50 unfed, adult brown dog ticks (R. sanguineus) and approximately 100 unfed, adult cat fleas (C. felis). Brown dog tick and cat flea counts were conducted on Day 32 (approximately 48 hours after infestation). GM percent efficacy of treatments against both tick species and fleas was calculated using the following formula: […]

The subject of data set [3] is brown dog tick (Rhipicephalus sanguineus). The experiment in a line: Residual efficacy against adult brown dog tick infestations on dogs, oral. It is filed as in vivo. The conditions noted are these: Day 32. As to the method:
as §3, §4, §5

In data set [4] the test system is adult American dog tick (Dermacentor variabilis). In words: Therapeutic (knockdown) and residual efficacy against adult American dog tick infestations on dogs, oral. The data set is classed as in vivo. The note with it: for therapeutic efficacy / Residual efficacy: oral gavage 25 mg/kg. The procedure:
as §1, §2, §4
The therapeutic (knockdown) and residual efficacy of S-enantiomer, 9, administered orally at a point dose of 25 mg/kg bodyweight, was evaluated against adult tick (Dermacentor variabilis and Rhipicephalus sanguineus) and adult cat flea (Ctenocephalides felis) infestations on dogs. […]

The subject of data set [5] is Lone star tick larvae (Amblyomma americanum). In words: Larval immersion microassay against larval-stage Lone star ticks. The note with it: Amblyomma americanum, 24 h, read-out: activity (percent larval mortality). As to the method:
The larval immersion microassay was conducted as described in detail in White, et al., J. Med. Entomol. 41: 1034-1042 (2004). Compounds of the invention were formulated in dimethylsulfoxide (DMSO) to prepare a stock solution at a concentration of at least 10 mM. Using 96-well microtiter plates, an aliquot of the mM sample was subsequently diluted in a water-based solution containing 1% ethanol and 0.2% Triton X-100, to obtain the desired concentration (typically 0.3 mM or lower) of compound in a volume of 0.1 ml (minimum n=3 replicates per compound or concentration). Approximately 30-50 Lone star tick larvae (Amblyomma americanum) were submerged into each well containing compounds. After a 30 minute immersion period, larvae were removed with a wide-bore pipette tip in 0.05 ml of fluid, dispensed into a commercial paper tissue biopsy bag which was sealed at the top with a plastic dialysis clip, inverted and allowed to air dry for 60 minutes. Bags containing larvae were then incubated at approximately 27 degrees Celsius and >90% relative humidity. After 24 hours, bags were opened, live and dead larvae were counted and percent larval mortality was calculated.
7 and 8 contain one chiral center each, and are racemic mixtures comprised of approximately 50% R- and 50% S-enantiomer. In vitro and surrogate animal (rat) studies were conducted to evaluate the biological activity of the R- and S-enantiomers of 7 and 8. For the in vitro study, larvae of the Lone star tick (Amblyomma americanum) were exposed to 9, 10, 11 and 12 using the larval immersion microassay at a concentration of no greater than 0.3 mM. Following exposure, larvae were removed, transferred to a tissue biopsy bag and incubated at approximately 27 degrees Celsius and >90% relative humidity. After 24 hours, biopsy bags were opened and the numbers of live and dead larvae were determined

The mark [6] stands for this setting: Table 6, oral capsule 25 mg/kg, Day 2.
The mark [7] stands for this setting: Table 6, oral capsule 25 mg/kg, Day 7.
The mark [8] stands for this setting: Table 6, oral capsule 25 mg/kg, Day 14.
[9] abbreviates: Table 6, oral capsule 25 mg/kg, Day 21.
Setting [10] is: Table 7, oral capsule 25 mg/kg, Day 1.
[11] abbreviates: Table 7, oral capsule 25 mg/kg, Day 2.
Where [12] appears, read: Table 7, oral capsule 25 mg/kg, Day 7.
Setting [13] is: Table 7, oral capsule 25 mg/kg, Day 14.
Where [14] appears, read: Table 7, oral capsule 25 mg/kg, Day 21.
Where [15] appears, read: Table 7, oral capsule 25 mg/kg, Day 30.

`Cc1cc(C2=NO[C@@](c3cc(Cl)c(Cl)c(Cl)c3)(C(F)(F)F)C2)ccc1C(=O)NCc1ccc2c(c1)B(O)OC2(C)C` [Compound 9, (S)—N-((1-hydroxy-3,3-dimethyl-1,3-dihydrobenzo[c][1,2]oxaborol-6-yl)methyl)-2-methyl-4-(5-(3,4,5-trichlorophenyl)-5-(trifluoromethyl)-4,5-dihydroisoxazol-3-yl)benzamide]: the tolerability result in data set [1] (Example 10, oral capsule 25 mg/kg) was “well tolerated”. The “Geometric mean group live parasite counts” value in data set [2] (Table 6, oral capsule 25 mg/kg) is 0.9; in data set [3] (Table 6, oral capsule 25 mg/kg), 0.5; in data set [4] (Table 6, oral capsule 25 mg/kg, Day 1), 0.0; in data set [4] (setting [6]), 0.0; in data set [4] (setting [7]), 0.0; in data set [4] (setting [8]), 0.0. The “Geometric mean group live parasite counts” value stood at 0.0 in data set [4] (setting [9]) and 1.1 in data set [4] (Table 6, oral capsule 25 mg/kg, Day 30). For the same compound, in data set [4] (Example 10, oral capsule 25 mg/kg, through Day 21), the continued residual efficacy came out at 100%. Also, the “% efficacy” value in data set [4] (setting [6]), in data set [4] (setting [7]), in data set [4] (setting [8]) and in data set [4] (setting [9]) was “(100) %” throughout. Besides, the mortality at 300 µM in data set [5] is no less than 80%.

On to `Cc1cc(C2=NO[C@@](c3cc(Cl)c(F)c(Cl)c3)(C(F)(F)F)C2)ccc1C(=O)NCc1ccc2c(c1)B(O)OC2(C)C` [Compound 11, (S)-4-(5-(3,5-Dichloro-4-fluorophenyl)-5-(trifluoromethyl)-4,5-dihydroisoxazol-3-yl)-N-((1-hydroxy-3,3-dimethyl-1,3-dihydrobenzo[c][1,2]oxaborol-6-yl)methyl)-2-methylbenzamide], for which the “Geometric mean group live parasite counts” value in data set [2] (Table 7, oral capsule 25 mg/kg) amounted to 2.5; in data set [3] (Table 7, oral capsule 25 mg/kg) it was 2.8; in data set [4] (setting [10]), 0.0; in data set [4] (setting [11]), 0.0; in data set [4] (setting [12]), 0.3; in data set [4] (setting [13]), 0.3. Moreover, the “Geometric mean group live parasite counts” value came out at 0.2 in data set [4] (setting [14]) and 1.1 in data set [4] (setting [15]). This compound showed an efficacy in data set [4] (Example 11, oral capsule 25 mg/kg, through Day 21) of no less than 99%. Further, the “% efficacy” value in data set [4] (setting [11]) is listed as “(100) %”; in data set [4] (setting [12]) it was “(98.8) %”; in data set [4] (setting [13]), “(99.1) %”; in data set [4] (setting [14]), “(99.0) %”; in data set [4] (setting [15]), “(95.6) %”. Besides, the mortality at 300 µM in data set [5] is no less than 80%.

As to `Cc1cc(C2=NOC(c3cc(Cl)cc(Cl)c3)(C(F)(F)F)C2)ccc1C(=O)NCc1ccc2c(c1)B(O)OC2(C)C` (stereo not drawn) [Compound 5, 4-(5-(3,5-Dichlorophenyl)-5-(trifluoromethyl)-4,5-dihydroisoxazol-3-yl)-N-((1-hydroxy-3,3-dimethyl-1,3-dihydrobenzo[c][1,2]oxaborol-6-yl)-methyl)-2-methyl benzamide], the tolerability entry in data set [1] (oral gavage 25 mg/kg) was “well tolerated”. Moreover, the therapeutic efficacy in data set [4] (24 hour post-treatment) and in data set [4] (48 hour post-treatment) was 100% throughout. Also, the Residual efficacy in data set [4] (Day 7) stood at 82.6%; in data set [4] (Day 14), 82.7%. The mortality at 300 µM in data set [5] was no less than 80%.

On to `Cc1cc(C2=NOC(c3cc(Cl)c(F)c(Cl)c3)(C(F)(F)F)C2)ccc1C(=O)NCc1ccc2c(c1)C(C)(C)OB2O` (stereo not drawn) [Compound 3, 4-(5-(3,5-Dichloro-4-fluorophenyl)-5-(trifluoromethyl)-4,5-dihydroisoxazol-3-yl)-N-((1-hydroxy-3,3-dimethyl-1,3-dihydrobenzo[c][1,2]oxaborol-5-yl)methyl)-2-methylbenzamide], for which the “Geometric mean group live parasite counts” value in data set [4] (setting [10]) was determined as 0.0; in data set [4] (setting [11]), 0.0; in data set [4] (setting [12]), 1.2; in data set [4] (setting [13]), 13.3. Besides, the “% efficacy” value in data set [4] (setting [11]) was “(100) %”. The mortality at 300 µM in data set [5] was no less than 80%.

By mortality is commonly meant the percentage killed.

Values taken from US8546357B2, “Boron-containing small molecules for controlling ectoparasites” (priority 2011, dated 2013).
